Results as given in patent publication US20050148633A1 (priority 2003, published 2005).
pIC50: −log10 of the molar value.

Each molecule was assayed on IL-2 production (assay: Inhibition of IL-2 production in PHA-activated Jurkat cells (ELISA)). Conditions: Homo sapiens, PHA 2.5 μg/mL, 20 hours, value bins.
Assay type: cell-based
Method: Jurkat cells were placed in a 96 well plate (0.5 million cells per well in 1% FBS medium) then test compounds of this invention were added at different concentrations. After 10 minutes, the cells were activated with PHA (final concentration 2.5 μg/mL) and incubated for 20 hours at 37° C. under CO2. The final volume was 200 μL. Following incubation, the cells were centrifuged and the supernatants collected and stored at −70° C. prior to assaying for IL-2 production. A commercial ELISA kit (IL-2 Eli-pair, Diaclone Research, Besancon, France) was used to detect production of IL-2, from which dose response curves were obtained. The IC50 value was calculated as the concentration at which 50% of maximum IL-2 production after stimulation was inhibited versus a non-stimulation control.

Row | SMILES | pIC50
1 | COc1ccc(OC)c(-c2ccc(NC(=O)c3snnc3C)cc2)c1 [Compound 58, 4-methyl-[1,2,3]-thiadiazole-5-carboxylic acid (2′,5′-dimethoxy-biphenyl-4-yl)-amide] | > 7.00
2 | Cc1cc(C)c(-c2ccc(NC(=O)c3cccc(F)c3F)cc2)cc1C [Compound 52, N-(2′,4′,5′-trimethyl-biphenyl-4-yl)-2,3-difluorobenzamide] | > 7.00
3 | Cc1oncc1C(=O)Nc1ccc(-c2cc(C(F)(F)F)ccc2C(F)(F)F)cc1 [Compound 51, 5-methylisoxazole-4-carboxylic acid (2′,5′-bis-trifluoromethyl-biphenyl-4-yl)-amide] | 6.30 to 7.00
4 | O=C(Nc1ccc(-n2c(C(F)(F)F)nnc2C(F)(F)F)cc1)c1cccc(F)c1F [Compound 32, N-[4-(3,5-Bis-trifluoromethyl-[1,2,4]triazol-4-yl)-phenyl]-2,3-difluoro-benzamide] | 6.30 to 7.00
5 | CCc1ccccc1-c1ccc(NC(=O)c2ccncc2C)cc1 [Compound 76, 3-methyl-pyridine-4-carboxylic acid (2′-ethyl-biphenyl-4-yl)-amide] | > 7.00
6 | COc1ccc(Cl)cc1-c1ccc(NC(=O)c2cc(F)c(F)cc2F)cc1 [Compound 84, N-(2′-methoxy-5′-chloro-biphenyl-4-yl)-2,4,5-trifluorobenzamide] | > 7.00
7 | O=C(Nc1ccc(-c2cc(C(F)(F)F)ccc2C(F)(F)F)cc1)c1ccno1 [Compound 42, Isoxazole-5-carboxylic acid (2′,5′-bis-trifluoromethyl-biphenyl-4-yl)-amide] | 6.30 to 7.00
8 | CCN(CC)C(=O)Nc1ccc(-c2cc(C(F)(F)F)ccc2C(F)(F)F)cc1 [Compound 131, N′,N′-diethyl-N-(2′,5′-bis-trifluoromethylbiphenyl-4-yl) urea] | > 7.00
9 | COc1ccc(OC)c(-c2ccc(NC(=O)c3ccccc3C)cc2)c1 [Compound 59, N-(2′,5′-dimethoxy-biphenyl-4-yl)-2-methylbenzamide] | > 7.00
10 | COc1ccc(OC)c(-c2ccc(NC(=O)c3c(F)cccc3F)cc2)c1 [Compound 125, N-(2′,5′-dimethoxy-biphenyl-4-yl)-2,6-difluoro-benzamide] | > 7.00
11 | Cc1nnsc1C(=O)Nc1ccc(-c2cc(OC(F)(F)F)ccc2N(C)C)cc1 [Compound 73, 4-methyl-[1,2,3]-thiadiazole-5-carboxylic acid {2′-(N,N-dimethylamino)-5′-trifluoromethoxybiphenyl-4-yl}-amide] | > 7.00
12 | Cc1nnsc1C(=O)Nc1ccc(-c2cc(C(F)(F)F)ccc2Cl)cc1 [Compound 27, 4-Methyl-[1,2,3]thiadiazole-5-carboxylic acid (2′-chloro-5′-trifluoromethyl-biphenyl-4-yl)-amide] | > 7.00
13 | COc1ccc(C(C)=O)cc1-c1ccc(NC(=O)c2snnc2C)cc1 [Compound 71, 4-methyl-[1,2,3]-thiadiazole-5-carboxylic acid (2′-methoxy-5′-acetylbiphenyl-4-yl)-amide] | 6.30 to 7.00
14 | Cc1noc(C)c1C(=O)Nc1ccc(-c2cc(C(F)(F)F)ccc2C(F)(F)F)cc1 [Compound 43, 3,5-dimethylisoxazole-4-carboxylic acid (2′,5′-bis-trifluoromethyl-biphenyl-4-yl)-amide] | > 7.00
15 | COc1ccc(Cl)cc1-c1ccc(NC(=O)c2ccncc2F)cc1 [Compound 67, 3-fluoro-pyridine-4-carboxylic acid (2′-methoxy-5′-chlorobiphenyl-4-yl)-amide] | > 7.00
16 | Fc1cccc(F)c1CNc1ccc(-c2cc(C(F)(F)F)ccc2C(F)(F)F)cc1 [Compound 127, N-(2′,5′-bis-trifluoromethyl-biphenyl-4-yl)-2,6-difluoro-benzyl amine] | > 7.00

More lines, now with the values ahead:

Row | pIC50 | SMILES
17 | > 7.00 | Cc1c(F)cccc1C(=O)Nc1ccc(-c2cc(C(F)(F)F)ccc2C(F)(F)F)cc1 [Compound 55, N-(2′,5′-bis-trifluoromethyl-biphenyl-4-yl)-2-methyl-3-fluorobenzamide]
18 | 6.30 to 7.00 | O=C(Nc1ccc(-c2cc(C(F)(F)F)ccc2F)cc1)c1cccc(F)c1F [Compound 19, 2,3-Difluoro-N-(2′-fluoro-5′-trifluoromethyl-biphenyl-4-yl)-benzamide]
19 | > 7.00 | O=C(Nc1ccc(-c2cc(C(F)(F)F)ccc2C(F)(F)F)cc1)c1cccc(F)c1F [Compound 18, N-(2′,5′-Bis-trifluoromethyl-biphenyl-4-yl)-2,3-difluoro-benzamide]
20 | > 7.00 | COc1ccc(Cl)cc1-c1ccc(NC(=O)c2cccc(F)c2F)cc1 [Compound 44, N-(2′-methoxy-5′-chloro-biphenyl-4-yl)-2,3-difluoro-benzamide]
21 | > 7.00 | Cc1ccccc1C(=O)Nc1ccc(-c2cc(C(F)(F)F)ccc2C(F)(F)F)cc1 [Compound 45]
22 | 6.30 to 7.00 | COc1ccccc1C(=O)Nc1ccc(-c2cc(C(F)(F)F)ccc2C(F)(F)F)cc1 [Compound 38, N-(2′,5′-bis-trifluoromethyl-biphenyl-4-yl)-2-methoxy-benzamide]
23 | 6.30 to 7.00 | O=C(Nc1ccc(-c2ccccc2C(F)(F)F)cc1)c1cnccc1C(F)(F)F [Compound 12, 4-Trifluoromethyl-N-(2′-trifluoromethyl-biphenyl-4-yl)-nicotinamide]
24 | > 7.00 | COc1cccc(C(=O)Nc2ccc(-c3cc(C(F)(F)F)ccc3C(F)(F)F)cc2)c1C [Compound 56, N-(2′,5′-bis-trifluoromethyl-biphenyl-4-yl)-2-methyl-3-methoxybenzamide]
25 | > 7.00 | O=C(Nc1ccc(-c2ccc(F)cc2C(F)(F)F)cc1)c1cccc(F)c1F [Compound 20, 2,3-Difluoro-N-(4′-fluoro-2′-trifluoromethyl-biphenyl-4-yl)-benzamide]
26 | 6.30 to 7.00 | O=C(Nc1ccc(-c2c(F)cccc2C(F)(F)F)cc1)c1cccc(F)c1F [Compound 22, 2,3-Difluoro-N-(2′-fluoro-6′-trifluoromethyl-biphenyl-4-yl)-benzamide]
27 | 6.30 to 7.00 | O=C(Nc1ccc(-c2ccccc2C(F)(F)F)cc1)c1cccc(F)c1F [Compound 15, 2,3-Difluoro-N-(2′-trifluoromethyl-biphenyl-4-yl)-benzamide]

Same assay, conditions: Homo sapiens, PHA, bin 500 nM-1 μM

Row | SMILES | pIC50
28 | CCN(CC)C(=O)Nc1ccc(-c2cc(C(F)(F)F)ccc2C(F)(F)F)cc1 [Compound 131, N′,N′-diethyl-N-(2′,5′-bis-trifluoromethylbiphenyl-4-yl) urea] | 6.00 to 6.30
29 | Cc1cc(C(=O)Nc2ccc(-c3cc(C(F)(F)F)ccc3C(F)(F)F)cc2)no1 [Compound 39, 5-Methyl-isoxazol-3-carboxylic acid (2′,5′-bis-trifluoromethyl-biphenyl-4-yl)-amide] | 6.00 to 6.30

Second part, the molecule after the results:

Row | pIC50 | SMILES
30 | 6.00 to 6.30 | O=C(Nc1ccc(-c2ccccc2C(F)(F)F)c(C(F)(F)F)c1)c1cccc(F)c1F [Compound 4, N-(2,2′-Bis-trifluoromethyl-biphenyl-4-yl)-2,3-difluoro-benzamide]
31 | 6.00 to 6.30 | O=C(Nc1ccc(-c2cc(C(F)(F)F)ccc2C(F)(F)F)cc1)c1ccccc1O [Compound 49, N-(2′,5′-bis-trifluoromethyl-biphenyl-4-yl)-2-hydroxybenzamide]

Same assay, conditions: Homo sapiens, PHA, bin >1 μM

Row | pIC50 | SMILES
32 | < 6.00 | O=C(Nc1ccc(-c2ccccc2C(F)(F)F)cc1)c1cccs1 [Compound 9, Thiophene-2-carboxylic acid (2′-trifluoromethyl-biphenyl-4-yl)-amide]
33 | < 6.00 | O=C(Nc1ccc(-c2ccccc2C(F)(F)F)cc1)c1ccccn1 [Compound 25, Pyridine-2-carboxylic acid (2′-trifluoromethyl-biphenyl-4-yl)-amide]
